The text below walks through data of patent US20050080027A1, “Optimized production of viral vectors derived from paroviruses in packaging and production cells by hsv infection or treatment with dna methylation inhibitors” (priority 2001, published 2005).

In this assay the test system is HeLa t-derived AAV producer cells. Kind of assay: Production of rAAV-(B7.2/GM-CSF) in producer cells using different inhibitors or helper viruses (transducing rAAV titer / AAV packaging efficiency). The format is cell-based. The settings on record: AdV MOI 10 alone or with 50 mM Na butyrate, 3 μM trichostatin A or 3 μM 5-azacytidine, or HSV-1 MOI 10 as helper virus, three days after infection. The text has this: The use, according to the invention, of the DNA methylation inhibitor leads to an increase in packaging efficiency to a level of at least 10^6, especially 10^7, preferably 10^8, in particular 10^9, transducing particles/ml of crude lyzate or of at least 10^10, especially 10^11, preferably 10^12, in particular 10^13, genomic particles/ml of crude lyzate. This corresponds to 10^5 to 10^8 genomic particles per sown cell. The packaging efficiency can be determined indirectly by using suitable cell lines to determine the transducing AAV titer. While this was effected specifically in this present case by measuring the B7.2-positive cells by fluorescence-labeling B7.2 and counting by means of FACS analysis, another common protein detection method can be used in the case of other transgenes. The transducing titer depends on the detection method and on the cell type employed, which means that it is necessary to select suitable cells when choosing the system for detecting the corresponding parvovirus or AAV serotype, for example HeLa cells in the case of AAV-2. The genomic titer is independent of the cell type. The genomic titer can be ascertained by means of real-time PCR, for example as described by Veldwijk M R et al. (2002) Mol. Ther. 6:272-8.
AdV was administered either alone or in combination with 50 mM Na butyrate (But), 3 μM trichostatin A (TSA) or 3 μM 5-azacytidine (Aza) (Sigma, Deisenhofen). “Standard” means transient cotransfection of HeLa cells with pAAV-(B7.2/GM-CSF) and the AAV-2 rep/cap helper plasmid and infection with adenovirus (AdV) (MOI 10); harvesting, 3 days after infection;
rAAV-(B7.2/GM-CSF) was initially prepared using producer cell lines (e.g. 1×10^6 cells sown in a 6 cm diameter cell culture dish, with the cells being sown 1 day before the infection) by infecting with adenovirus (multiplicity of infection, MOI 10). […] After 72 hours, the lyzates were prepared by freeze/thaw lysis and freed from the cell debris. Adenovirus […] HSV-1 was heat-inactivated at 56° C. […]
Consider `Nc1ncn([C@@H]2O[C@H](CO)[C@@H](O)[C@H]2O)c(=O)n1` [Aza, 5-azacytidine], for which the “AAV packaging efficiency (yield of transducing rAAV particles)” value (from here on “AAV packaging efficiency”) is “restore this AAV packaging efficiency”.

Regarding `CCCC(=O)[O-].[Na+]` [But, Na butyrate], the “AAV packaging efficiency” value is recorded as “did not result in an increase in AAV packaging efficiency”.

On to `CC(/C=C/C(=O)NO)=C\[C@@H](C)C(=O)c1ccc(N(C)C)cc1` [TSA, trichostatin A], for which the “AAV packaging efficiency” value is listed as “did not result in an increase in AAV packaging efficiency”.
